# Experimental data published in patent US10383823B2 (Mallinckrodt LLC, priority 2013, dated 2019).
# How the values were obtained:
# [1] = system: KB tumors; type: in vivo; details: KB tumored nude mice, dosed at 8 mg/kg cisplatin
# [2] = mouse KB tumor model
# [3] = system: A427 human NSCLC xenografts; details: single treatment, 14 days post injection, equivalent cisplatin levels
smiles,measurement,setting,value
"N.N.[Cl][Pt][Cl] [Cisplatin, (SP-4-2)-diamminedichloridoplatinum (II)]",peak tumor DNA/Pt adduct,[1],less than 10 pg of Pt/μg of DNA
same,maximum tolerated dose (MTD),[2],less than 10 mg/kg
same,tumor growth inhibition,[3],30%
